Results as given in patent US20140243322A1, “BIVALENT BROMODOMAIN LIGANDS, AND METHODS OF USING SAME” (Coferon, Inc., priority 2011, published 2014).

What was measured:
[1] = tested on: Myc mRNA; experiment: Inhibition of Myc expression (Myc mRNA) in MV4-11 cells; format: cell-based; conditions: Homo sapiens, 4 hours of treatment, read-out: EC50 range, Myc mRNA normalized to GAPDH mRNA
Description: Inhibition of Myc Expression.

[2] = tested on: MV4-11 cells; experiment: Inhibition of MV4-11 cell proliferation (Cell-Titer Glo); format: cell-based; conditions: Homo sapiens, 72 hours of growth, read-out: GI50 range
Method: Inhibition of MV4-11 Cell Proliferation.
MV4-11 cells (5000 cells in 50 μl volumes) in growth medium containing 10% FBS and 1% Pen/Strep were plated and grown overnight in 96 well plates and treated the next day with 3-fold dilutions of test compounds or with DMSO vehicle. After 72 hours of growth, 30 ul of Cell-Titer Glo reagent (Promega) was added to the wells and the plates incubated for 30 minutes. Luminescence was measured on a Spectramax M5 plate reader and GI50 values were calculated for each test compound.

Row | SMILES | EC50 [1] [nM] | GI50 [2] [nM]
1 | COc1ccc2c(c1)C(c1ccc(Cl)cc1)=N[C@@H](CC(=O)NCCNC(=O)CNC(=O)CNC(=O)C[C@@H]1N=C(c3ccc(Cl)cc3)c3cc(OC)ccc3-n3c(C)nnc31)c1nnc(C)n1-2 [BRD-B-08, 2-((S)-6-(4-chlorophenyl)-8-methoxy-1-methyl-4H-benzo[f][1,2,4]triazolo[4,3-a][1,4]diazepin-4-yl)-N-(2-(2-(2-(2-((S)-6-(4-chlorophenyl)-8-methoxy-1-methyl-4H-benzo[f][1,2,4]triazolo[4,3-a][1,4]diazepin-4-yl)acetamido)acetamido)acetamido)ethyl)acetamide] | 100 to 30000 | 100 to 30000
2 | COc1ccc2c(c1)C(c1ccc(Cl)cc1)=N[C@@H](CC(=O)NCCNC(=O)CNC(=O)NCCNC(=O)C[C@@H]1N=C(c3ccc(Cl)cc3)c3cc(OC)ccc3-n3c(C)nnc31)c1nnc(C)n1-2 [BRD-B-09] | 100 to 30000 | 100 to 30000
3 | Cc1ccc(-c2c(C)noc2C)cc1S(=O)(=O)NCCOCCOCCNS(=O)(=O)c1cc(-c2c(C)noc2C)ccc1C [BRD-B-76, N,N′-((ethane-1,2-diylbis(oxy))bis(ethane-2,1-diyl))bis(5-(3,5-dimethylisoxazol-4-yl)-2-methylbenzenesulfonamide)] | 100 to 30000 | –
4 | COc1ccc2c(c1)C(c1ccc(Cl)cc1)=N[C@@H](CC(=O)NCCNC(=O)NCCNC(=O)C[C@@H]1N=C(c3ccc(Cl)cc3)c3cc(OC)ccc3-n3c(C)nnc31)c1nnc(C)n1-2 [BRD-B-06, (S)—N,N′-((carbonylbis(azanediyl))bis(ethane-2,1-diyl))bis(2-((S)-6-(4-chlorophenyl)-8-methoxy-1-methyl-4H-benzo[f][1,2,4]triazolo[4,3-a][1,4]diazepin-4-yl)acetamide)] | 100 to 30000 | 100 to 30000
5 | CCNC(=O)C[C@@H]1N=C(c2ccc(Cl)cc2)c2cc(OCCOCCOCCOCCOCCOCCOCCOCCOCCNC(=O)C[C@@H]3N=C(c4ccc(Cl)cc4)c4cc(OC)ccc4-n4c(C)nnc43)ccc2-n2c(C)nnc21 [BRD-B-20, N-(26-(((4S)-6-(4-chlorophenyl)-4-(2-(ethylamino)-2-oxoethyl)-1-methyl-4H-benzo[f][1,2,4]triazolo[4,3-a][1,4]diazepin-8-yl)oxy)-3,6,9,12,15,18,21,24-octaoxahexacosyl)-2-((4S)-6-(4-chlorophenyl)-8-methoxy-1-methyl-4H-benzo[f][1,2,4]triazolo[4,3-a][1,4]diazepin-4-yl)acetamide] | 0.1 to 30 | 0.1 to 30
6 | COc1ccc2c(c1)C(c1ccc(Cl)cc1)=N[C@@H](CC(=O)NCCOCCOCCOCCOCCOCCOCCOCCOCCNC(=O)C[C@@H]1N=C(c3ccc(Cl)cc3)c3cc(OC)ccc3-n3c(C)nnc31)c1nnc(C)n1-2 [BRD-B-22, (S)—N,N′-(3,6,9,12,15,18,21,24-octaoxahexacosane-1,26-diyl)bis(2-((4S)-6-(4-chlorophenyl)-8-methoxy-1-methyl-4H-benzo[1,2,4]triazolo[4,3-a][1,4]diazepin-4-yl)acetamide)] | 30 to 100 | 0.1 to 30
7 | CCNC(=O)C[C@@H]1N=C(c2ccc(Cl)cc2)c2cc(OCCOCCOCCNC(=O)C[C@@H]3N=C(c4ccc(Cl)cc4)c4cc(OC)ccc4-n4c(C)nnc43)ccc2-n2c(C)nnc21 [BRD-B-04, N-(2-(2-(2-(((S)-6-(4-chlorophenyl)-4-(2-(ethylamino)-2-oxoethyl)-1-methyl-4H-benzo[f][1,2,4]triazolo[4,3-a][1,4]diazepin-8-yl)oxy)ethoxy)ethoxy)ethyl)-2-((S)-6-(4-chlorophenyl)-8-methoxy-1-methyl-4H-benzo[f][1,2,4]triazolo[4,3-a][1,4]diazepin-4-yl)acetamide] | 0.1 to 30 | 0.1 to 30
8 | COc1ccc2c(c1)C(c1ccc(Cl)cc1)=N[C@@H](CC(=O)NCCOCCOCCOCCOCCOCCOCCOCCOCCOCCNC(=O)C[C@@H]1N=C(c3ccc(Cl)cc3)c3cc(OC)ccc3-n3c(C)nnc31)c1nnc(C)n1-2 [BRD-B-23, (S)—N,N′-(3,6,9,12,15,18,21,24,27-nonaoxanonacosane-1,29-diyl)bis(2-((4S)-6-(4-chlorophenyl)-8-methoxy-1-methyl-4H-benzo[f][1,2,4]triazolo[4,3-a][1,4]diazepin-4-yl)acetamide)] | 30 to 100 | 0.1 to 30
9 | CCNC(=O)C[C@@H]1N=C(c2ccc(Cl)cc2)c2cc(OCCOCCOCCOCCOCCOCCNC(=O)C[C@@H]3N=C(c4ccc(Cl)cc4)c4cc(OC)ccc4-n4c(C)nnc43)ccc2-n2c(C)nnc21 [BRD-B-13, N-(17-(((4S)-6-(4-chlorophenyl)-4-(2-(ethylamino)-2-oxoethyl)-1-methyl-4H-benzo[f][1,2,4]triazolo[4,3-a][1,4]diazepin-8-yl)oxy)-3,6,9,12,15-pentaoxaheptadecyl)-2-((4S)-6-(4-chlorophenyl)-8-methoxy-1-methyl-4H-benzo[f][1,2,4]triazolo[4,3-a][1,4]diazepin-4-yl)acetamide] | 100 to 30000 | 0.1 to 30
10 | COc1ccc2c(c1)C(c1ccc(Cl)cc1)=N[C@@H](CC(=O)NCCNC(=O)CNC(=O)C[C@@H]1N=C(c3ccc(Cl)cc3)c3cc(OC)ccc3-n3c(C)nnc31)c1nnc(C)n1-2 [BRD-B-07, 2-((S)-6-(4-chlorophenyl)-8-methoxy-1-methyl-4H-benzo[f][1,2,4]triazolo[4,3-a][1,4]diazepin-4-yl)-N-(2-(2-(2-((S)-6-(4-chlorophenyl)-8-methoxy-1-methyl-4H-benzo[f][1,2,4]triazolo[4,3-a][1,4]diazepin-4-yl)acetamido)acetamido)ethyl)acetamide] | 100 to 30000 | 100 to 30000
11 | COc1ccc2c(c1)C(c1ccc(Cl)cc1)=N[C@@H](CC(=O)NCCOCCOCCOCCOCCOCCOCCNC(=O)C[C@@H]1N=C(c3ccc(Cl)cc3)c3cc(OC)ccc3-n3c(C)nnc31)c1nnc(C)n1-2 [BRD-B-18, (S)—N,N′-(3,6,9,12,15,18-hexaoxaicosane-1,20-diyl)bis(2-((S)-6-(4-chlorophenyl)-8-methoxy-1-methyl-4H-benzo[f][1,2,4]triazolo[4,3-a][1,4]diazepin-4-yl)acetamide)] | 30 to 100 | 0.1 to 30
12 | COc1ccc2c(c1)C(c1ccc(Cl)cc1)=N[C@@H](CC(=O)NCC(=O)NCCNC(=O)CNC(=O)C[C@@H]1N=C(c3ccc(Cl)cc3)c3cc(OC)ccc3-n3c(C)nnc31)c1nnc(C)n1-2 [BRD-B-11, (S)—N,N′-(ethane-1,2-diyl)bis(2-(2-((S)-6-(4-chlorophenyl)-8-methoxy-1-methyl-4H-benzo[f][1,2,4]triazolo[4,3-a][1,4]diazepin-4-yl)acetamido)acetamide)] | 100 to 30000 | 100 to 30000
13 | COc1ccc2c(c1)C(c1ccc(Cl)cc1)=N[C@@H](CC(=O)NCCOCCOCCOCCOCCOCCNC(=O)C[C@@H]1N=C(c3ccc(Cl)cc3)c3cc(OC)ccc3-n3c(C)nnc31)c1nnc(C)n1-2 [BRD-B-17, (S)—N,N′-(3,6,9,12,15-pentaoxaheptadecane-1,17-diyl)bis(2-((S)-6-(4-chlorophenyl)-8-methoxy-1-methyl-4H-benzo[f][1,2,4]triazolo[4,3-a][1,4]diazepin-4-yl)acetamide)] | 100 to 30000 | 30 to 100
14 | CCNC(=O)C[C@@H]1N=C(c2ccc(Cl)cc2)c2cc(OCCOCCOCCOCCNC(=O)C[C@@H]3N=C(c4ccc(Cl)cc4)c4cc(OC)ccc4-n4c(C)nnc43)ccc2-n2c(C)nnc21 [BRD-B-05, N-(2-(2-(2-(2-(((S)-6-(4-chlorophenyl)-4-(2-(ethylamino)-2-oxoethyl)-1-methyl-4H-benzo[f][1,2,4]triazolo[4,3-a][1,4]diazepin-8-yl)oxy)ethoxy)ethoxy)ethoxy)ethyl)-2-((S)-6-(4-chlorophenyl)-8-methoxy-1-methyl-4H-benzo[f][1,2,4]triazolo[4,3-a][1,4]diazepin-4-yl)acetamide] | 30 to 100 | 0.1 to 30
15 | CCNC(=O)C[C@@H]1N=C(c2ccc(Cl)cc2)c2cc(OCCNC(=O)C[C@@H]3N=C(c4ccc(Cl)cc4)c4cc(OC)ccc4-n4c(C)nnc43)ccc2-n2c(C)nnc21 [BRD-B-01, N-(2-(((S)-6-(4-chlorophenyl)-4-(2-(ethylamino)-2-oxoethyl)-1-methyl-4H-benzo[f][1,2,4]triazolo[4,3-a][1,4]diazepin-8-yl)oxy)ethyl)-2-((S)-6-(4-chlorophenyl)-8-methoxy-1-methyl-4H-benzo[f][1,2,4]triazolo[4,3-a][1,4]diazepin-4-yl)acetamide] | – | 100 to 30000
16 | COc1ccc2c(c1)C(c1ccc(Cl)cc1)=N[C@@H](CC(=O)NCc1cccc(C3CCN(C(=O)C[C@@H]4N=C(c5ccc(Cl)cc5)c5cc(OC)ccc5-n5c(C)nnc54)CC3)c1)c1nnc(C)n1-2 [BRD-B-10, 2-((S)-6-(4-chlorophenyl)-8-methoxy-1-methyl-4H-benzo[f][1,2,4]triazolo[4,3-a][1,4]diazepin-4-yl)-N-(3-(1-(2-((S)-6-(4-chlorophenyl)-8-methoxy-1-methyl-4H-benzo[f][1,2,4]triazolo[4,3-a][1,4]diazepin-4-yl)acetyl)piperidin-4-yl)benzyl)acetamide] | – | 100 to 30000
17 | CCNC(=O)C[C@@H]1N=C(c2ccc(Cl)cc2)c2cc(OCCOCCOCCOCCOCCOCCOCCOCCOCCOCCNC(=O)C[C@@H]3N=C(c4ccc(Cl)cc4)c4cc(OC)ccc4-n4c(C)nnc43)ccc2-n2c(C)nnc21 [BRD-B-21, N-(29-(((4S)-6-(4-chlorophenyl)-4-(2-(ethylamino)-2-oxoethyl)-1-methyl-4H-benzo[f][1,2,4]triazolo[4,3-a][1,4]diazepin-8-yl)oxy)-3,6,9,12,15,18,21,24,27-nonaoxanonacosyl)-2-((4S)-6-(4-chlorophenyl)-8-methoxy-1-methyl-4H-benzo[f][1,2,4]triazolo[4,3-a][1,4]diazepin-4-yl)acetamide] | 100 to 30000 | –
